The test system of data set [1] is Staphylococcus aureus. Description: In vivo antibacterial activity against methicillin-resistant Staphylococcus aureus KCCM 40511 ATCC 33593 infected in soft-skin tissue BALB/c mouse infection model assessed as downregulation of IL-1beta levels in wound area treated as ointment administered twice at 6 and 12 hrs and measured after 24 hrs by ELISA assay. The format is functional, organism-based. (In general: An ELISA detects its analyte on a solid surface through an enzyme-linked reagent.)

For data set [2], the system named is Staphylococcus aureus. Description: In vivo antibacterial activity against methicillin-resistant Staphylococcus aureus KCCM 40511 ATCC 33593 infected in soft-skin tissue BALB/c mouse infection model assessed as downregulation of IL-6 levels in wound area treated as ointment administered twice at 6 and 12 hrs and measured after 24 hrs by ELISA assay. The format is functional, organism-based.

Data set [3] relates to Clostridioides difficile. Description: Antibacterial activity against Clostridioides difficile RT027/ST1/A+B+CDT+ assessed as inhibition of bacterial growth measured after 24 hrs by CLSI based broth dilution method. The data set is classed as functional. On the technique in general: Dilution methods test growth across graded concentrations, often in twofold steps.
The subject of data set [4] is Enterococcus faecalis. Description: Antibacterial activity against Clinical isolate Enterococcus faecalis assessed as inhibition of bacterial growth measured after 24 hrs by CLSI based broth dilution method. The data set is classed as functional.
Data set [5] has as its system Enterococcus faecalis. Description: Antibacterial activity against Enterococcus faecalis ATCC 29212 assessed as inhibition of bacterial growth measured after 24 hrs by CLSI based broth dilution method. The format is functional.
Data set [6] is described as follows: Toxicity in colitis-induced C57BL/6J mouse infected with Clostridioides difficile ribotype 027 assessed as increase in Klebsiella proportion in gut at 30 mg/kg, po qd pretreated with clindamycin followed by infected with […] and measured on day 20 post treatment by RNA sequencing analysis (reference value: 0%). The format is organism-based. The note with it: in vivo, 480 h, time 20 day.

A short description of data set [7]: Toxicity in colitis-induced C57BL/6J mouse infected with Clostridioides difficile ribotype 027 assessed as increase in Escherichia proportion in gut at 30 mg/kg, po qd pretreated with clindamycin followed by infected with […] and measured on day 20 post treatment by RNA sequencing analysis (reference value: 0%). The data set is classed as organism-based. To be noted: in vivo, 480 h, time 20 day.

Data set [8] relates to Clostridioides difficile. Description: Antibacterial activity against Clostridioides difficile RT017/ST37/A-B+ assessed as inhibition of bacterial growth measured after 24 hrs by CLSI based broth dilution method. The format is functional.
The test system of data set [9] is Staphylococcus aureus. Description: Antibacterial activity against Staphylococcus aureus ATCC 4330 assessed as inhibition of bacterial growth measured after 16 to 24 hrs by CLSI based broth dilution method. The data set is classed as functional. To be noted: time 16-24 hrs.
Data set [10] concerns Clostridioides difficile. Description: Antibacterial activity against Clostridioides difficile ribotype 027 infected in colitis induced C57BL/6J mouse assessed as survival rate at 30 mg/kg, po qd pretreated with clindamycin followed by […] infection and compound addition measured on day 5. To be noted: ribotype 027, 120 h, time 5 day. The format is functional.
Data set [11] can be described thus: Genotoxicity in Salmonella typhimurium TA98 incubated for 90 min by Ames test. The data set is classed as toxicity. To be noted: salmonella enterica subsp. enterica serovar typhimurium, 1.5 h. (The Ames test detects mutagens through reverse mutation in bacteria.)
The nature of data set [12]: Toxicity in colitis-induced C57BL/6J mouse infected with Clostridioides difficile ribotype 027 assessed as effect on gut micro-biome at 30 mg/kg, po qd pretreated with clindamycin followed by infected with […] and measured on day 6 post treatment by RNA sequencing analysis. The format is organism-based. The note with it: in vivo, 144 h, time 6 day.
The nature of data set [13]: Toxicity in colitis-induced C57BL/6J mouse infected with Clostridioides difficile ribotype 027 assessed as increase in Klebsiella proportion in gut at 30 mg/kg, po qd pretreated with clindamycin followed by infected with […] and measured on day 6 post treatment by RNA sequencing analysis (reference value: 0%). The data set is classed as organism-based. To be noted: in vivo, 144 h, time 6 day.

The subject of data set [14] is Clostridioides difficile. Description: Antibacterial activity against Clostridioides difficile RT018/ST17/A+B+ assessed as inhibition of bacterial growth measured after 24 hrs by CLSI based broth dilution method. The data set is classed as functional.
Data set [15] relates to Clostridioides difficile. Description: Antibacterial activity against Clostridioides difficile RT293/ST129/A+B+ assessed as inhibition of bacterial growth measured after 24 hrs by CLSI based broth dilution method. The format is functional.
Data set [16] has as its system Clostridioides difficile. Description: Antibacterial activity against Clostridioides difficile NT/ST221/A+B+CDT+ assessed as inhibition of bacterial growth measured after 24 hrs by CLSI based broth dilution method. The data set is classed as functional.
Data set [17] concerns Clostridioides difficile. Description: Antibacterial activity against Clostridioides difficile RT001/ST3/A+B+ assessed as inhibition of bacterial growth measured after 24 hrs by CLSI based broth dilution method. The format is functional.
Data set [18] has as its system Clostridioides difficile. Description: Antibacterial activity against Clostridioides difficile ATCC 43255 assessed as inhibition of bacterial growth measured after 24 hrs by CLSI based broth dilution method. The data set is classed as functional.
A short description of data set [19]: Genotoxicity in Salmonella typhimurium TA100 incubated for 90 min in presence of S9 fraction by Ames test. The data set is classed as toxicity, subcellular. To be noted: salmonella enterica subsp. enterica serovar typhimurium, s9, 1.5 h.
For data set [20], the system named is Clostridioides difficile. Description: Antibacterial activity against Clostridioides difficile RT015/ST35/A+B+ assessed as inhibition of bacterial growth measured after 24 hrs by CLSI based broth dilution method. The format is functional.
The test system of data set [21] is Clostridioides difficile. Description: Antibacterial activity against Clostridioides difficile RT014/ST14/A+B+ assessed as inhibition of bacterial growth measured after 24 hrs by CLSI based broth dilution method. The format is functional.
The subject of data set [22] is Clostridioides difficile. Description: Antibacterial activity against Clostridioides difficile RT012/ST54/A+B+ assessed as inhibition of bacterial growth measured after 24 hrs by CLSI based broth dilution method. The format is functional.
Data set [23] can be described thus: Toxicity in colitis-induced C57BL/6J mouse infected with Clostridioides difficile ribotype 027 assessed as increase in Enterococcus proportion in gut at 30 mg/kg, po qd pretreated with clindamycin followed by infected with […] and measured on day 20 post treatment by RNA sequencing analysis (reference value: 0%). The data set is classed as organism-based. To be noted: in vivo, 480 h, time 20 day.

Data set [24] concerns Clostridioides difficile. Description: Antibacterial activity against Clostridioides difficile RT078/ST11/A+B+CDT+ assessed as inhibition of bacterial growth measured after 24 hrs by CLSI based broth dilution method. The data set is classed as functional.
Data set [25] is described as follows: Toxicity in colitis-induced C57BL/6J mouse infected with Clostridioides difficile ribotype 027 assessed as increase in Enterococcus proportion in gut at 30 mg/kg, po qd pretreated with clindamycin followed by infected with […] and measured on day 6 post treatment by RNA sequencing analysis (reference value: 0%). The data set is classed as organism-based. To be noted: in vivo, 144 h, time 6 day.

Data set [26] can be described thus: Toxicity in colitis-induced C57BL/6J mouse infected with Clostridioides difficile ribotype 027 assessed as effect on Acinetobacter proportion in gut at 30 mg/kg, po qd pretreated with clindamycin followed by infected with […] and measured on day 6 post treatment by RNA sequencing analysis. The format is organism-based. The note with it: in vivo, 144 h, time 6 day.

For data set [27], the system named is Clostridioides difficile. Description: Antibacterial activity against Clostridioides difficile ribotype 027 infected in colitis induced C57BL/6J mouse assessed as increase in survival rate without recurrence at 30 mg/kg, po qd pretreated with clindamycin followed by […] infection and compound addition measured on day 5. The data set is classed as functional. The note with it: time 5.0 day.

Data set [28] relates to Enterococcus faecium. Description: Antibacterial activity against Enterococcus faecium ATCC 19434 assessed as inhibition of bacterial growth measured after 24 hrs by CLSI based broth dilution method. The data set is classed as functional.
Data set [29] is described as follows: Genotoxicity in Salmonella typhimurium TA98 incubated for 90 min in presence of S9 fraction by Ames test. The data set is classed as toxicity, subcellular. The note with it: salmonella enterica subsp. enterica serovar typhimurium, s9, 1.5 h.
Data set [30] is described as follows: Genotoxicity in Salmonella typhimurium TA100 incubated for 90 min by Ames test. The data set is classed as toxicity. The note with it: salmonella enterica subsp. enterica serovar typhimurium, 1.5 h.
Data set [31] concerns Clostridioides difficile. Description: Antibacterial activity against Clostridioides difficile RT130/ST5/A+B+CDT+ assessed as inhibition of bacterial growth measured after 24 hrs by CLSI based broth dilution method. The format is functional.
Data set [32] in a line: Toxicity in colitis-induced C57BL/6J mouse infected with Clostridioides difficile ribotype 027 assessed as increase in Escherichia proportion in gut at 30 mg/kg, po qd pretreated with clindamycin followed by infected with […] and measured on day 6 post treatment by RNA sequencing analysis (reference value: 0%). The format is organism-based. The note with it: in vivo, 144 h, time 6 day.

Data set [33] concerns Clostridioides difficile. Description: Antibacterial activity against Clostridioides difficile RT002/ST8/A+B+ assessed as inhibition of bacterial growth measured after 24 hrs by CLSI based broth dilution method. The data set is classed as functional.
The subject of data set [34] is Clostridioides difficile. Description: Antibacterial activity against Clostridioides difficile NT/ST67/A+B+CDT+ assessed as inhibition of bacterial growth measured after 24 hrs by CLSI based broth dilution method. The format is functional.
The target of data set [35] is Voltage-gated inwardly rectifying potassium channel KCNH2 (Homo sapiens, UniProt Q12809). Description: Inhibition of hERG expressed in HEK293 cells at 10 uM incubated for 5 mins by whole cell patch clamp assay. The format is toxicity, cell-based. The note with it: hek293, 5 min.
Sequence of Voltage-gated inwardly rectifying potassium channel KCNH2 (Q12809 whole entry): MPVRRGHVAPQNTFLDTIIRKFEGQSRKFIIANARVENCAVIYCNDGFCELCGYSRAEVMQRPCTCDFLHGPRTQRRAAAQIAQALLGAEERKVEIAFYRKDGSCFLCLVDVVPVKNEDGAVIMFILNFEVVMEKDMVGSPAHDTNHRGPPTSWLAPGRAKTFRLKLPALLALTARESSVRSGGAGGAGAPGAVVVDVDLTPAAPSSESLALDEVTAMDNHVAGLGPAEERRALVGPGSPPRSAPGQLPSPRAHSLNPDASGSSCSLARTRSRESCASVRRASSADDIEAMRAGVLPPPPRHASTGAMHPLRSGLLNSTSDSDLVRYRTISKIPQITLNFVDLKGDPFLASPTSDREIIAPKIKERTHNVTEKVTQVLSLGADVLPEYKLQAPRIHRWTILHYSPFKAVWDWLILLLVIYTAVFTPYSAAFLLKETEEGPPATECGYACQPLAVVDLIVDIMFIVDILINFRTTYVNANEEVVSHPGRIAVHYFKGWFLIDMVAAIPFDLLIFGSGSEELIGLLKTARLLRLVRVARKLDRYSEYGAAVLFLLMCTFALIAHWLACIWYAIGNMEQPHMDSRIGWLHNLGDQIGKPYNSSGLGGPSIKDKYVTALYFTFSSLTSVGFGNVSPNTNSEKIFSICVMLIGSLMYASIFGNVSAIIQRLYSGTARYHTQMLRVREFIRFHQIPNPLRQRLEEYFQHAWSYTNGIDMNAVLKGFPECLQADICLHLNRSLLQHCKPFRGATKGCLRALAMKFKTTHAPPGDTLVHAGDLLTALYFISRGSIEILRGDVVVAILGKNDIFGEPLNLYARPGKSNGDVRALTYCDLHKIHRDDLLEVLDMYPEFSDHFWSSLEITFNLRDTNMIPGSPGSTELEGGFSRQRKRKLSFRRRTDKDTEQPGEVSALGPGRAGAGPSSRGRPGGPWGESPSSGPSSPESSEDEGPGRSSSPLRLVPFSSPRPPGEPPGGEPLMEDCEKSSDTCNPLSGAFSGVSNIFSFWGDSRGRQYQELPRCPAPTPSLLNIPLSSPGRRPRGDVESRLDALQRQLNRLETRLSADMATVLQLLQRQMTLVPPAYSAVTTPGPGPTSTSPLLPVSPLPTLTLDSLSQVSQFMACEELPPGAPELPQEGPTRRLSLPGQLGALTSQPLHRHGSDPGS
Data set [36] is described as follows: Toxicity in colitis-induced C57BL/6J mouse infected with Clostridioides difficile ribotype 027 assessed as effect on Firmicutes proportion in gut at 30 mg/kg, po qd pretreated with clindamycin followed by infected with […] and measured on day 6 post treatment by RNA sequencing analysis. The format is organism-based. To be noted: in vivo, 144 h, time 6 day.

In data set [37] the test system is Clostridioides difficile. Description: Antibacterial activity against Clostridioides difficile ribotype 027 infected in colitis induced C57BL/6J mouse assessed as increase in survival rate without recurrence at 30 mg/kg, po qd pretreated with clindamycin followed by […] infection and compound addition measured on day 10 to day 11. To be noted: time 10-11 day. The format is functional, organism-based.

SMILES strings stand for the structures. ≈ marks a conversion by molar mass, not a printed value. Calls of active or inactive are those of the source. The rule behind the calls is not given here.

`C/C=C(\NC(=O)c1csc(-c2csc(-c3ccc4c(n3)-c3csc(n3)[C@H]([C@@H](C)O)NC(=O)c3csc(n3)[C@H](C(C)C)NC(=O)c3csc(n3)/C(=C/C)NC(=O)[C@H]([C@@H](C)O)NC(=O)c3csc-4n3)n2)n1)C(=O)NCCN1CCN(C(C)C)CC1`: the result in data set [1] and in data set [2] was Active.
Usually MIC stands for the least concentration at which growth counts as inhibited. `C/C=C(\NC(=O)c1csc(-c2csc(-c3ccc4c(n3)-c3csc(n3)[C@H]([C@@H](C)O)NC(=O)c3csc(n3)[C@H](C(C)C)NC(=O)c3csc(n3)/C(=C/C)NC(=O)[C@H]([C@@H](C)O)NC(=O)c3csc-4n3)n2)n1)C(=O)NCCn1c([N+](=O)[O-])cnc1C`: the minimal inhibitory concentration (MIC) is 0.125 mg/L (≈ 0.101 µM) in data set [3]; 0.25 mg/L (≈ 0.202 µM) in [4]; 0.25 mg/L (≈ 0.202 µM) in data set [5]; 0.125 mg/L (≈ 0.101 µM) in data set [8]; 0.25 mg/L (≈ 0.202 µM) in data set [9]; 0.125 mg/L (≈ 0.101 µM) in data set [14]. Besides, the MIC in data set [15], in data set [16], in [17], in [18], in data set [20] and in data set [21] was 0.125 mg/L (≈ 0.101 µM) in each case. Also, the MIC in data set [22] amounted to 0.125 mg/L (≈ 0.101 µM); in [24] it was 0.125 mg/L (≈ 0.101 µM); in [28] it was 0.25 mg/L (≈ 0.202 µM); in data set [31], 0.125 mg/L (≈ 0.101 µM); in data set [33], 0.125 mg/L (≈ 0.101 µM); in data set [34], 0.125 mg/L (≈ 0.101 µM). Also, the Activity is 0.15% in data set [6]; 0.93% in data set [7]; “Non-Toxic” in data set [11]; “Non-Toxic” in data set [12]; 0.94% in [13]; “Non-Toxic” in data set [19]. The Activity in data set [23] is given as 1.62%; in [25], 0.52%; in data set [26] it was “Non-Toxic”; in data set [29] it was “Non-Toxic”; in data set [30] it was “Non-Toxic”; in data set [32], 2.88%. In [36], the Activity entry is “Non-Toxic”. Besides, the survival at 30 mg/kg in [10] amounted to 80%. Further, in data set [27], the result was Active. In addition, the “inhibition (INH)” value in [35] is “Active”.
Consider `CCc1c(Cl)c(O)c(Cl)c(O)c1C(=O)O[C@H]1[C@H](O)[C@H](OC)[C@H](OC/C2=C\C=C\C[C@H](O)/C(C)=C/[C@H](CC)[C@@H](O[C@@H]3OC(C)(C)[C@@H](OC(=O)C(C)C)[C@H](O)[C@@H]3O)/C(C)=C/C(C)=C/C[C@@H]([C@@H](C)O)OC2=O)O[C@@H]1C` [FIDAXOMICIN], for which, in data set [10], the survival at 30 mg/kg amounted to 40%. The result in [37] was inactive.

Values taken from ChEMBL document CHEMBL5370604, “Identification of Micrococcin P2-Derivatives as Antibiotic Candidates against Two Gram-Positive Pathogens” (J Med Chem, 2023).
